Test results reported in the supplement of paper PMC6045584.

How the values were obtained:
Assay in all cases: area under dose-response curve of surviving fraction (unscaled, Aref=0) (surviving fraction x log10(nM)); higher = more resistant
Details in all cases: exposure time: 5 days; dose range 0.5-1000 nM
SALINOMYCIN = compound: CC[C@@H](C(=O)[C@@H](C)[C@@H](O)[C@H](C)[C@@H]1O[C@@H]([C@@H](CC)C(=O)O)CC[C@@H]1C)[C@H]1O[C@]2(C=C[C@@H](O)[C@]3(CC[C@@](C)([C@H]4CC[C@](O)(CC)[C@H](C)O4)O3)O2)[C@H](C)C[C@@H]1C [SALINOMYCIN]
Summary of the method: (§1)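 Inhibitor was applied to tumour cell lines at eight concentrations (0.5 to 1000 nM) for five days in 384-well plates. Luminescence from CellTiter-Glo, scaled to DMSO-only wells, gave surviving fractions in three screens per line, and these were fitted by 3-parameter logistic regression with the drc R package. The area under the curve is an unscaled activity area. Aref was 0, and dose was on a log10 scale.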

NUTLIN3 = compound: COc1ccc(C2=N[C@@H](c3ccc(Cl)cc3)[C@@H](c3ccc(Cl)cc3)N2C(=O)N2CCNC(=O)C2)c(OC(C)C)c1 [NUTLIN3]
Summary of the method: as §1

LAPATINIB = compound: CS(=O)(=O)CCNCc1ccc(-c2ccc3ncnc(Nc4ccc(OCc5cccc(F)c5)c(Cl)c4)c3c2)o1 [LAPATINIB]
Summary of the method: as §1

FLUOROURACIL = compound: O=c1[nH]cc(F)c(=O)[nH]1 [FLUOROURACIL]
Summary of the method: as §1

17-AAG = compound: C=CCNC1=C2C[C@@H](C)C[C@H](OC)[C@H](O)[C@@H](C)/C=C(\C)[C@H](OC(N)=O)[C@@H](OC)/C=C\C=C(/C)C(=O)NC(=CC1=O)C2=O [17-AAG]
Summary of the method: as §1

DOXORUBICIN = compound: COc1cccc2c1C(=O)c1c(O)c3c(c(O)c1C2=O)C[C@@](O)(C(=O)CO)C[C@@H]3O[C@H]1C[C@H](N)[C@H](O)[C@H](C)O1 [DOXORUBICIN]
Summary of the method: as §1

DECITABINE = compound: Nc1ncn([C@H]2C[C@H](O)[C@@H](CO)O2)c(=O)n1 [DECITABINE]
Summary of the method: as §1

FLAVOPIRIDOL = compound: CN1CC[C@H](c2c(O)cc(O)c3c(=O)cc(-c4ccccc4Cl)oc23)[C@H](O)C1 [FLAVOPIRIDOL]
Summary of the method: as §1

RESVERATROL = compound: Oc1ccc(/C=C/c2cc(O)cc(O)c2)cc1 [RESVERATROL]
Summary of the method: as §1

2-METHOXYESTRADIOL = compound: COc1cc2c(cc1O)CC[C@@H]1[C@@H]2CC[C@]2(C)[C@@H](O)CC[C@@H]12 [2-METHOXYESTRADIOL]
Summary of the method: as §1

VISMODEGIB = compound: CS(=O)(=O)c1ccc(C(=O)Nc2ccc(Cl)c(-c3ccccn3)c2)c(Cl)c1 [VISMODEGIB]
Summary of the method: as §1

[1] = compound: CCN(CC)CCCCNc1ncc2cc(-c3cc(OC)cc(OC)c3)c(NC(=O)NC(C)(C)C)nc2n1
Summary of the method: as §1

ABT-737 = compound: CN(C)CC[C@H](CSc1ccccc1)Nc1ccc(S(=O)(=O)NC(=O)c2ccc(N3CCN(Cc4ccccc4-c4ccc(Cl)cc4)CC3)cc2)cc1[N+](=O)[O-] [ABT-737]
Summary of the method: as §1

Test System | area under dose-response curve (SALINOMYCIN) | area under dose-response curve (NUTLIN3) | area under dose-response curve (LAPATINIB) | area under dose-response curve (FLUOROURACIL) | area under dose-response curve (17-AAG) | area under dose-response curve (DOXORUBICIN) | area under dose-response curve (DECITABINE) | area under dose-response curve (FLAVOPIRIDOL) | area under dose-response curve (RESVERATROL) | area under dose-response curve (2-METHOXYESTRADIOL) | area under dose-response curve (VISMODEGIB) | area under dose-response curve [1] | area under dose-response curve (ABT-737)
93VU HEADNECK | 2.79 | 3.56 | 2.8 | 3.04 | 2.32 | 2.39 | 3.07 | 2.13 | 3.7 | 3.08 | – | – | –
143B BONE | 3.23 | 3.5 | – | – | 2.38 | 2.11 | – | – | – | – | 3.22 | 3.04 | –
ASKA SYNOVIAL | 3.15 | – | 3.82 | – | 1.27 | 0.989 | 3.08 | 2.27 | 3.84 | 3.04 | 3.21 | – | –
BT20 BREAST | 3.84 | 3.59 | 3.84 | – | 1.37 | 1.48 | 4.16 | 2.22 | 3.71 | – | 3.18 | 3.96 | –
CHLA90 AUTONOMIC GANGLIA | 2.67 | 3.33 | – | – | 2.06 | 1.8 | – | 2.36 | 3.38 | 3.22 | 3.12 | 2.92 | 3.26
CME SYNOVIAL | 2.88 | 4.32 | 4.25 | – | 1.9 | 1.52 | 2.82 | 2.35 | 4.4 | – | 3.77 | 3.88 | 4.41
HCC202 BREAST | 2.48 | 3.88 | – | – | 1.59 | 2.27 | – | – | – | – | 3.06 | 4.1 | –
HUO3N1 BONE | 2.41 | 3.41 | 3.26 | 3.28 | 2.3 | 2 | – | 2.49 | 3.49 | 3.2 | – | 3.05 | –
JURKAT HAEMATOPOIETIC AND LYMPHOID TISSUE | 2.52 | 3.49 | 3.21 | – | 2.65 | 1.12 | 1.56 | 2.12 | 3.34 | 2.65 | – | 3.44 | 3.08
LNCAP PROSTATE | 1.9 | 2.82 | 3.12 | – | 1.33 | 1.09 | 2.75 | 1.78 | 3.05 | 2.89 | – | 2.96 | 3.07
MDAMB157 BREAST | 2.66 | 3.22 | 3.27 | – | 1.61 | 1.21 | 2.4 | 2.21 | 3.39 | 3.1 | 3.26 | 2.73 | 3.26
NCIH441 LUNG | 3.12 | 3.56 | 3.58 | – | 2.37 | 2.15 | 2.57 | 2.48 | 3.72 | 3.22 | 3.27 | 3.37 | –
NOS1 BONE | 2.83 | 3.66 | 3.54 | – | 1.6 | 2.15 | 3.34 | 2.06 | 3.77 | – | – | 3.02 | 3.75
NY BONE | 2.53 | 3.28 | 3.43 | – | 1.6 | 1.85 | 2.91 | 2.12 | 3.32 | 2.83 | 3.28 | 2.65 | 3.42
OS25HAL BONE | 2.57 | 3.29 | 3.47 | – | 2.56 | 1.87 | 3.53 | 2.25 | 3.4 | 3.02 | 3.29 | 3.27 | 3.39
OSHN BONE | 2.81 | 3.52 | 3.55 | – | 2.3 | 1.98 | 3.71 | 2.31 | 3.6 | 3.21 | 3.27 | 3.35 | 3.58
SG27 HEADNECK | 2.95 | – | – | 3.48 | 2.94 | 2.61 | 3.79 | 2.29 | 3.59 | 3.61 | 3.18 | 3.03 | –
SG28 HEADNECK | 2.71 | 3.29 | – | – | 1.95 | 2.4 | – | – | – | – | 3 | 3.28 | –
SG31 HEADNECK | 2.81 | 3.23 | – | – | 1.94 | 2.02 | – | 2.03 | – | 3.42 | 3.05 | 3.09 | 3.88
SG32 HEADNECK | 2.42 | 3.75 | 3.6 | – | 1.96 | 1.68 | – | 1.72 | 3.38 | 2.92 | – | 3.36 | 3.48
SIHA CERVIX | 2.93 | 3.54 | 3.53 | – | 2.23 | 2.16 | 3.46 | 2.19 | 3.61 | 3.15 | – | 3.08 | 3.73
SJSA1 BONE | 2.91 | 3.18 | 5.27 | – | 1.72 | 1.9 | 4.52 | 2.96 | 5.61 | 5.58 | 3.35 | 3.48 | 5.63
SUM149.B1*.S BREAST | 2.9 | 3.61 | – | – | 1.93 | 2 | – | 2.37 | 3.7 | 3.49 | – | – | 3.79
SUM159 BREAST | 2.31 | 3.27 | 3.55 | 3.29 | 1.72 | 1.84 | 3.48 | 2.38 | 3.53 | 3.24 | – | 3.75 | –
VCAP PROSTATE | 2.89 | 3.78 | 3.07 | – | 2.25 | 2.3 | 3.68 | 2.26 | 3.11 | 3.12 | 3.36 | 3.48 | 3.49
ZR751 BREAST | 2.67 | – | 2.92 | – | 1.74 | 2.06 | – | 2.38 | 3.31 | – | 2.87 | 3.3 | 3.53
